Source: patent US8362267B2, “Benzophenone thiazole derivatives useful for inhibiting formation of microtubule and method for producing the same” (Chong Kun Dang Pharmaceutical Corp., priority 2008, dated 2013)
Converted amounts (≈) assume the structure as drawn. Where two headings read alike, the source gives them in different places.

How the values were obtained:
[1] = Measurement of solubility in water (HPLC); assay type: physicochemical; settings: thermodynamic from solid; in distilled water, 25° C.
Experimental: The compounds of the present invention were developed to reduce toxicity caused by deposition on organ due to low solubility of compound 516, as confirmed by animal tests. Considering this, solubility of the present compounds in water was thus measured.
The compound was dissolved in acetonitrile to a concentration of 1 mg/mL and the solution was diluted with a mobile phase to a concentration of 5, 12.5, 25, 50 or 100 μg/ml.
1. The compound was added to distilled water such that the concentration of each specimen was adjusted to 10 mg/mL, stirred in a thermostat stirrer (25° C., 200 rpm) for about 7 days, filtered and diluted with a mobile phase to an optimal concentration.
2. The compound was added to distilled water such that the concentration of each specimen was adjusted to 10 mg/mL, sonicated for 30 minutes, stirred for 5 minutes, filtered, sonicated for 30 minutes again and diluted with a mobile phase to an optimal concentration.
Column temperature: 25° C.
Column: Kromasil C8 (4.6×150 mm, 5 μm)
Mobile phase: 20 mM ammonium acetate, pH 5.0/ACN (60/40)

[2] = system: CX-1 (human colon adenocarcinoma); test: In vivo antitumor activity, human xenograft, colorectal cancer model CX-1; parameters: species or system BALB/c nude mice; settings: for weight loss / animal death / pharmaceutical effects as compared to the reference drug, AC7700: CX-1 xenograft model; for weight loss: as compared to the compound 516, in words; for animal death / pharmaceutical effects as compared to the reference drug, AC7700: in words; for Body weight change (%) / IR (%) / Number of dead animals: q4d x 4 (i.p.)
Experimental: (§1) BALB/c male nude mice (4 weeks) available from Central Lab Animal Inc. were used for human xenograft experiments. Sterile food and potable water were freely provided to the mice in an isolated sterile cage and the temperature of the cage was maintained at 23±0.5° C.
(§2) In vivo human xenograft experiments were performed in accordance with the following procedure. In vitro proliferated human-derived cancer cell lines (CX-1, HCT-15, A549, MKN45, calu-6) were subcutaneously injected into the abdominal region of BALB/c nude mice and were thus proliferated in vivo. After 20 to 25 days, the mice were sacrificed by cervical spine dislocation, solid cancer cells proliferated in the mice were sterilely separated and fresh cancer cells from which connective or necrotic tissues or skin were removed were collected. The fragments of tumor were transplanted to the BALB/c nude mice.
(§3) The mice in which cancer cells were proliferated to a predetermined size were collected on the 15th to 30th day after human-derived cancer models were transplanted into the BALB/c nude mice and then used for the tests. For each experimental group, the drug was injected at a dose of 0.1 mL per 10 g of mouse in accordance with a dose schedule, when tumor cells were grown to a size of 100 to 200 mm^3 after tumor transplantation.
(§4) After administration, antitumor activity was evaluated based upon an antitumor inhibition rate (IR %) of tumor growth, obtained by comparing a tumor volume measured on the final day with a tumor volume of a control group. As the reference drug, AC7700 (Sanofi-Aventis), which is currently undergoing phase III clinical trials, was used. Tumor size=(short diameter)^2×(long diameter)/2 I.R.(%)=[1−(average tumor size of drug-administered group)/(average tumor size of control group)]×100

[3] = system: HCT-15 (human colorectal adenocarcinoma, CCL-225); assay type: in vivo; settings: HCT-15 xenograft, q4d x 4 (i.p.)
Experimental: as §1
(§5) A human cancer model, CX-1 (human colon adenocarcinoma), for xenograft experiment was obtained from the German Cancer Research Center (DKFZ), and HCT-15 (human colorectal adenocarcinoma, CCL-225) and A549 (human lung carcinoma, CCL-185) were obtained from ATCC (American Type Culture Collection, Rockville, Md., USA). Human tumor cells, MKN45 (human gastric adenocarcinoma, #80103) and calu-6 (human lung carcinoma, #30056) were obtained from KCLB (Korean Cell Line. Bank).
(§6) CX-1 was incubated in a 95% air incubator (37° C., 5% CO2) using a DMEM (Dulbecco's Modified Eagle's Medium, Gibco) supplemented with 10% heat-inactivated fetal bovine serum (Gibco) and 1% Antibiotics-Antimycotics (Gibco). Other cell lines were incubated in a 95% air incubator (37° C., 5% CO2) using an RPM1640 (Gibco BRL) medium supplemented with 10% heat-inactivated fetal bovine serum (Gibco) and 1% Antibiotics-Antimycotics (Gibco).
as §2, §3, §4

[4] = system: A549 (human lung carcinoma, CCL-185); test: In vivo antitumor activity, human xenograft, lung cancer model A549
Experimental: as §1, §5, §6, §2, §3, §4

[5] = system: MKN45 (human gastric adenocarcinoma, #80103); test: In vivo antitumor activity, human xenograft, stomach cancer model MKN45
Experimental: as §1, §5, §6, §2, §3, §4

[6] = system: calu-6 (human lung carcinoma, #30056); test: In vivo antitumor activity, human xenograft, non-small cell lung cancer model calu-6
Experimental: as §1, §5, §6, §2, §3, §4

[7] = Table 4, CX-1 xenograft, 5 mg/kg
[8] = Table 4, CX-1 xenograft, 10 mg/kg
[9] = A549 xenograft, 5 mg/kg, q4d x 4 (i.p.)
[10] = A549 xenograft, 7.5 mg/kg, q4d x 4 (i.p.)
[11] = A549 xenograft, 10 mg/kg, q4d x 4 (i.p.)
[12] = MKN45 xenograft, 5 mg/kg, q4d x 4 (i.p.)
[13] = MKN45 xenograft, 7.5 mg/kg, q4d x 4 (i.p.)
[14] = MKN45 xenograft, 10 mg/kg, q4d x 4 (i.p.)
[15] = calu-6 xenograft, 5 mg/kg, q4d x 4 (i.p.)
[16] = calu-6 xenograft, 7.5 mg/kg, q4d x 4 (i.p.)
[17] = calu-6 xenograft, 10 mg/kg, q4d x 4 (i.p.)
[18] = Table 3, CX-1 xenograft, 5 mg/kg
[19] = Table 3, CX-1 xenograft, 100 mg/kg
[20] = Table 4, CX-1 xenograft, 100 mg/kg
[21] = A549 xenograft, 80 mg/kg, q4d x 4 (i.p.)
[22] = MKN45 xenograft, 80 mg/kg, q4d x 4 (i.p.)
[23] = calu-6 xenograft, 80 mg/kg, q4d x 4 (i.p.)
[24] = Table 4, CX-1 xenograft, 20 mg/kg

For `COc1cc(C(=O)c2ccc(-c3csc(NC(=O)[C@@H](N)Cc4ccccc4)n3)cc2-n2cncn2)cc(OC)c1OC` [Compound 625], the solubility [1] was 11 mg/mL (≈ 18.8 mM), the weight loss [2] was “no weight loss” and the animal death [2] was “no animal death”. The “pharmaceutical effects as compared to the reference drug, AC7700” value [2] was “significantly superior pharmaceutical effects”, the “Body weight change (%)” value [2, 7] was “+28.9%” and the “IR (%)” value [2, 7] was 21%. The “Body weight change (%)” value [2, 8] was “+24.5%” and the “IR (%)” value [2, 8] was 43%.
In the case of `COc1cc(C(=O)c2ccc(-c3csc(NC(=O)[C@@H](N)C(C)C)n3)cc2-n2cncn2)cc(OC)c1OC` [Compound 624, (S)—N-(4-(3-(1H-1,2,4-triazol-1-yl)-4-(3,4,5-trimethoxybenzoyl)phenyl)thiazol-2-yl)-2-amino-3-methylbutanamide], the solubility [1] is reported as 14.9 mg/mL (≈ 27.8 mM), the weight loss [2] is reported as “no weight loss” and the animal death [2] is reported as “no animal death”. For the same molecule, the “pharmaceutical effects as compared to the reference drug, AC7700” value [2] was “significantly superior pharmaceutical effects”, the “Body weight change (%)” value [2, 7] was “+25.7%” and the “IR (%)” value [2, 7] was 28%. For the same molecule, the “Body weight change (%)” value [2, 8] was “+14.7%”, the “IR (%)” value [2, 8] was 64% and the “Body weight change (%)” value ([3]; 5 mg/kg) was “+1.8%”. For the same molecule, the “IR (%)” value ([3]; 5 mg/kg) was 12%, the “Body weight change (%)” value ([3]; 7.5 mg/kg) was “+3.2%” and the “IR (%)” value ([3]; 7.5 mg/kg) was 63%. The “Body weight change (%)” value ([3]; 10 mg/kg) was “+6.6%”, the “IR (%)” value ([3]; 10 mg/kg) was 69% and the “pharmaceutical effects as compared with the reference drug” value ([4]; A549 xenograft model, in words) was “significantly superior pharmaceutical effects”. The “Body weight change (%)” value [4, 9] was −1.7%, the “IR (%)” value [4, 9] was 39% and the “Body weight change (%)” value [4, 10] was “+1.7%”. For the same molecule, the “IR (%)” value [4, 10] was 61%, the “Body weight change (%)” value [4, 11] was −1.2% and the “IR (%)” value [4, 11] was 71%. For the same molecule, the “pharmaceutical effects as compared with the reference drug” value ([5]; MKN45 xenograft model, in words) was “significantly superior pharmaceutical effects”, the “Body weight change (%)” value [5, 12] was −11.8% and the “IR (%)” value [5, 12] was 21%. The “Body weight change (%)” value [5, 13] was “+2.9%”, the “IR (%)” value [5, 13] was 46% and the “Body weight change (%)” value [5, 14] was “+4.3%”. For the same molecule, the “IR (%)” value [5, 14] was 68%, the “pharmaceutical effects as compared with the reference drug” value ([6]; calu-6 xenograft model, in words) was “significantly superior pharmaceutical effects” and the “Body weight change (%)” value [6, 15] was “+26.2%”. The “IR (%)” value [6, 15] was 41%, the “Body weight change (%)” value [6, 16] was “+26.0%” and the “IR (%)” value [6, 16] was 73%. For the same molecule, the “Body weight change (%)” value [6, 17] was “+20.6%” and the “IR (%)” value [6, 17] was 82%.
In the case of `COc1cc(C(=O)c2ccc(-c3csc(NC(=O)CN)n3)cc2-n2cncn2)cc(OC)c1OC` [Compound 615, N-(4-(3-(1H-1,2,4-triazol-1-yl)-4-(3,4,5-trimethoxybenzoyl)phenyl)thiazol-2-yl)-2-aminoacetamide], the solubility [1] is reported as 23.3 mg/mL (≈ 47.1 mM).
In the case of `COc1cc(C(=O)c2ccc(-c3csc(N)n3)cc2-n2cncn2)cc(OC)c1OC` [Compound 516, {4-(2-aminothiazol-4-yl)-2-(1H-1,2,4-triazol-1-yl)phenyl}(3,4,5-trimethoxyphenyl)methanone, reference compound], the solubility [1] is reported as 0.5 mg/mL (≈ 1.14 mM), the animal death [2] is reported as “two animals died” and the “pharmaceutical effects as compared to the reference drug, AC7700” value [2] is reported as “significantly superior pharmaceutical effects”. The “Body weight change (%)” value [2, 18] was “+15.2%”, the “Number of dead animals” value [2, 18] was 2/6 and the “IR (%)” value ([2]; Table 3, CX-1 xenograft, 5 mg/kg, tumor volume on final day vs control) was 36%.
With `COc1ccc(/C=C\c2cc(OC)c(OC)c(OC)c2)cc1NC(=O)[C@@H](N)CO` [AC7700, reference compound] the “Body weight change (%)” value [2, 19] was “+13.2%”, the “Number of dead animals” value [2, 19] was 2/6 and the “IR (%)” value ([2]; Table 3, CX-1 xenograft, 100 mg/kg, tumor volume on final day vs control) was 48%. The “Body weight change (%)” value [2, 20] was “+22.8%”, the “IR (%)” value [2, 20] was 34% and the “Number of dead animals” value [2, 20] was 0/6. For the same molecule, the “Body weight change (%)” value ([3]; 80 mg/kg) was “+5.5%”, the “IR (%)” value ([3]; 80 mg/kg) was 66% and the “Number of dead animals” value ([3]; 80 mg/kg) was 1/6. The “Body weight change (%)” value [4, 21] was “+2.6%”, the “IR (%)” value [4, 21] was 64% and the “Number of dead animals” value [4, 21] was 0/7. For the same molecule, the “Body weight change (%)” value [5, 22] was “+7.8%”, the “IR (%)” value [5, 22] was 55% and the “Number of dead animals” value [5, 22] was 0/6. For the same molecule, the “Body weight change (%)” value [6, 23] was “+22.4%”, the “IR (%)” value [6, 23] was 80% and the “Number of dead animals” value [6, 23] was 0/6.
In the case of `COc1cc(C(=O)c2ccc(-c3csc(NC(=O)CN(C)C)n3)cc2-n2cncn2)cc(OC)c1OC` [Compound 631, N-(4-(3-(1H-1,2,4-triazol-1-yl)-4-(3,4,5-trimethoxybenzoyl)phenyl)thiazol-2-yl)-2-(dimethylamino)acetamide], the weight loss [2] is reported as “no weight loss”, the animal death [2] is reported as “no animal death” and the “pharmaceutical effects as compared to the reference drug, AC7700” value [2] is reported as “significantly superior pharmaceutical effects”. For the same molecule, the “Body weight change (%)” value [2, 7] was “+24.8%”, the “IR (%)” value [2, 7] was 23% and the “Body weight change (%)” value [2, 8] was “+26.7%”. The “IR (%)” value [2, 8] was 20%, the “Body weight change (%)” value [2, 24] was “+20.9%” and the “IR (%)” value [2, 24] was 37%.
Work on `COc1cc(C(=O)c2ccc(-c3csc(NC(=O)[C@@H](N)CC(C)C)n3)cc2-n2cncn2)cc(OC)c1OC` [Compound 647, (S)—N-(4-(3-(1H-1,2,4-triazol-1-yl)-4-(3,4,5-trimethoxybenzoyl)phenyl)thiazol-2-yl)-2-amino-4-methylpentanamide] yielded a solubility [1] of 12.1 mg/mL (≈ 22 mM).
